Results as given in ChEMBL document CHEMBL1201862, “PubChem BioAssay data set” (2004).
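Where inhibition never reached the appropriate level, the endpoint shown equals the highest concentration tested. Otherwise, values were interpolated linearly from a five-concentration, 48-hour dose response in 96-well plates. GI50 is the concentration that inhibits growth by half.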 Activity calls are given as the source filed them. Rule as the data show it: active = GI50 up to about 1.1 µM and inactive = higher. Residues, ends and D or L forms follow the SMILES beside them. Groups on a side chain read outwards from the residue. *: point of attachment. Cbz = O=C(OCc1ccccc1)*; Boc = CC(C)(C)OC(=O)*

Assays:
Assay in all cases: DTP human tumour cell line panel, 48 h
ACHN = tested on: ACHN
HOP-92 = tested on: HOP-92
HT-29 = tested on: HT-29
NCI-H226 = tested on: NCI-H226
NCI-H23 = tested on: NCI-H23
NCI-H522 = tested on: NCI-H522
OVCAR-5 = tested on: OVCAR-5
OVCAR-8 = tested on: OVCAR-8
SF-268 = tested on: SF-268
SF-539 = tested on: SF-539
SK-MEL-28 = tested on: SK-MEL-28
SK-MEL-5 = tested on: SK-MEL-5
SW-620 = tested on: SW-620
U-251 = tested on: U-251
UACC-257 = tested on: UACC-257
UACC-62 = tested on: UACC-62
UO-31 = tested on: UO-31
PC-3 = tested on: PC-3
MCF7 = tested on: MCF7

Measured: GI50

CC1(C)OC(=O)C(=Cc2ccc(O)cc2)C(=O)O1
inactive: ACHN > 100 µM | HOP-92 > 100 µM | HT-29 > 100 µM | NCI-H226 > 100 µM | NCI-H23 > 100 µM | NCI-H522 > 100 µM | OVCAR-5 > 100 µM | OVCAR-8 > 100 µM | SF-268 > 100 µM | SF-539 > 100 µM | SK-MEL-28 > 100 µM | SK-MEL-5 > 100 µM | SW-620 > 100 µM | U-251 > 100 µM | UACC-257 > 100 µM | UACC-62 > 100 µM | UO-31 > 100 µM

C1COCCSC2=C(SCCO1)SC(=C1SC3=C(SCCOCCOCCS3)S1)S2
inactive: ACHN > 100 µM | HOP-92 44.7 µM | HT-29 > 100 µM | NCI-H226 > 100 µM | NCI-H23 > 100 µM | NCI-H522 36.2 µM | OVCAR-5 > 100 µM | OVCAR-8 53.5 µM | SF-268 51.1 µM | SF-539 34.5 µM | SK-MEL-28 > 100 µM | SK-MEL-5 > 100 µM | SW-620 > 100 µM | U-251 49.2 µM | UACC-257 > 100 µM | UACC-62 > 100 µM | UO-31 > 100 µM

COc1cc2c(c(C)c1O)[C@H]1COc3ccccc3[C@H]1O2
inactive: ACHN 21.2 µM | HOP-92 19.5 µM | HT-29 17.7 µM | NCI-H226 6.25 µM | NCI-H23 13.2 µM | NCI-H522 3.27 µM | OVCAR-5 55.3 µM | OVCAR-8 20.9 µM | SF-268 15.2 µM | SF-539 8.41 µM | SK-MEL-28 12.6 µM | SK-MEL-5 10.8 µM | SW-620 5.27 µM | U-251 > 10 µM | UACC-257 12.4 µM | UACC-62 7.89 µM | UO-31 8.51 µM

COc1ccc(N2C(=O)C3C=CC(n4[nH]c(=O)n(Cc5ccccc5)c4=O)CC3C2=O)cc1 (stereo unspecified)
inactive: ACHN > 100 µM | HOP-92 > 100 µM | HT-29 > 100 µM | NCI-H226 > 100 µM | NCI-H23 > 100 µM | NCI-H522 > 100 µM | OVCAR-5 > 100 µM | OVCAR-8 > 100 µM | SF-268 > 100 µM | SF-539 > 100 µM | SK-MEL-28 > 100 µM | SK-MEL-5 > 100 µM | SW-620 > 100 µM | U-251 > 100 µM | UACC-257 > 100 µM | UACC-62 > 100 µM | UO-31 > 100 µM

Nc1ccc(/C=C/c2ccnc3ccccc23)cc1
inactive: ACHN 19.2 µM | HOP-92 20.3 µM | HT-29 23.4 µM | NCI-H226 17.7 µM | NCI-H23 20 µM | NCI-H522 13.2 µM | OVCAR-5 19.6 µM | OVCAR-8 21.8 µM | SF-268 16.5 µM | SF-539 20 µM | SK-MEL-28 32.4 µM | SK-MEL-5 15.2 µM | SW-620 24.7 µM | U-251 16.8 µM | UACC-257 22.2 µM | UACC-62 23.4 µM | UO-31 16.5 µM

O=C1NC2(NC(=O)C1=O)Nc1ccccc1S2
inactive: ACHN 33.4 µM | HOP-92 > 100 µM | HT-29 67 µM | NCI-H226 > 58.6 µM | NCI-H23 > 63 µM | NCI-H522 22.1 µM | OVCAR-5 > 100 µM | OVCAR-8 58.7 µM | SF-268 24.8 µM | SF-539 27 µM | SK-MEL-28 43.5 µM | SK-MEL-5 32.7 µM | SW-620 12.9 µM | U-251 30.9 µM | UACC-257 > 61.4 µM | UACC-62 23.8 µM | UO-31 30.7 µM

N#CCC(=O)Nc1ccccc1O
inactive: ACHN > 100 µM | HOP-92 > 100 µM | HT-29 > 100 µM | NCI-H226 > 100 µM | NCI-H23 > 100 µM | NCI-H522 > 100 µM | OVCAR-5 > 100 µM | OVCAR-8 > 100 µM | SF-268 > 100 µM | SF-539 > 100 µM | SK-MEL-28 > 100 µM | SK-MEL-5 > 100 µM | SW-620 > 100 µM | U-251 > 100 µM | UACC-257 > 100 µM | UACC-62 > 100 µM | UO-31 > 100 µM

CC(c1ccccc1)N1O[C@]12CC[C@@]1(C)C(CCCC13OCCO3)C2 (stereo partly specified)
inactive: ACHN 16.5 µM | HOP-92 11.1 µM | HT-29 21.7 µM | NCI-H226 > 100 µM | NCI-H23 38.4 µM | NCI-H522 17.2 µM | OVCAR-5 > 100 µM | OVCAR-8 16.7 µM | SF-268 43.6 µM | SF-539 56.2 µM | SK-MEL-28 47.8 µM | SK-MEL-5 36.1 µM | SW-620 16.7 µM | U-251 21.1 µM | UACC-257 21.4 µM | UACC-62 19.6 µM | UO-31 18 µM

O=C(Nn1c(-c2cccs2)nc2ccc(I)cc2c1=O)c1ccccc1
inactive: ACHN 30.7 µM | HOP-92 17.8 µM | HT-29 29.8 µM | NCI-H226 28.5 µM | NCI-H23 21.2 µM | NCI-H522 22.1 µM | OVCAR-5 37.8 µM | OVCAR-8 39 µM | PC-3 33.9 µM | SF-268 34.4 µM | SK-MEL-28 24.7 µM | SK-MEL-5 21.9 µM | SW-620 71.6 µM | U-251 24.7 µM | UACC-62 20.6 µM | UO-31 28.3 µM

CC(C)CC(NC(=O)OCc1ccccc1)C(=O)NCCCCC(NC(=O)C(CCCCNC(=O)C(CC(C)C)NC(=O)OCc1ccccc1)NC(=O)C(CCCCNC(=O)C(CC(C)C)NC(=O)OCc1ccccc1)NC(=O)C(CCCCNC(=O)C(CC(C)C)NC(=O)OCc1ccccc1)NC(=O)OC(C)(C)C)C(=O)O (stereo unspecified) (Boc-K([Leu-Cbz])K([Leu-Cbz])K([Leu-Cbz])K([Leu-Cbz])-OH; configuration not given here)
inactive: ACHN > 25 µM | HT-29 > 25 µM | MCF7 > 25 µM | NCI-H226 > 25 µM | NCI-H23 > 25 µM | NCI-H522 > 25 µM | OVCAR-5 > 25 µM | OVCAR-8 > 25 µM | PC-3 > 25 µM | SF-268 > 25 µM | SK-MEL-28 > 25 µM | SK-MEL-5 > 25 µM | SW-620 > 25 µM | U-251 > 25 µM | UACC-257 > 25 µM | UACC-62 > 25 µM | UO-31 > 25 µM

O=C(OC[C@H]1O[C@@H](OC(=O)c2cc(O)c(O)c(O)c2)[C@H](OC(=O)c2cc(O)c(O)c(O)c2)[C@@H](OC(=O)c2cc(O)c(O)c(O)c2)[C@@H]1OC(=O)c1cc(O)c(O)c(O)c1)c1cc(O)c(O)c(O)c1 [PENTAGALLOYL GLUCOSE]
inactive: ACHN 3.89 µM | HOP-92 5.58 µM | HT-29 6.92 µM | NCI-H226 1.49 µM | NCI-H23 2.16 µM | NCI-H522 3.46 µM | OVCAR-5 7.94 µM | OVCAR-8 5.22 µM | SF-268 4.57 µM | SF-539 2.49 µM | SK-MEL-28 15.3 µM | SK-MEL-5 11.3 µM | SW-620 6 µM | U-251 5.33 µM | UACC-257 14.9 µM | UACC-62 2.26 µM | UO-31 5.79 µM
